Data from ChEMBL document CHEMBL4325871 (Eur J Med Chem, 2019).
Activity calls are given as the source filed them. The calls are words filed in the database; no cut-off is given here.

Experiments:
[1] = biological target: T1, Serine/threonine-protein kinase Chk1 (Homo sapiens) (UniProt O14757); assay: Inhibition of CHK1 phosphorylation at S345 residue in human HCT116 cells at 20 uM after 8 hrs by Western blot analysis; format: cell-based
T1 sequence (whole entry): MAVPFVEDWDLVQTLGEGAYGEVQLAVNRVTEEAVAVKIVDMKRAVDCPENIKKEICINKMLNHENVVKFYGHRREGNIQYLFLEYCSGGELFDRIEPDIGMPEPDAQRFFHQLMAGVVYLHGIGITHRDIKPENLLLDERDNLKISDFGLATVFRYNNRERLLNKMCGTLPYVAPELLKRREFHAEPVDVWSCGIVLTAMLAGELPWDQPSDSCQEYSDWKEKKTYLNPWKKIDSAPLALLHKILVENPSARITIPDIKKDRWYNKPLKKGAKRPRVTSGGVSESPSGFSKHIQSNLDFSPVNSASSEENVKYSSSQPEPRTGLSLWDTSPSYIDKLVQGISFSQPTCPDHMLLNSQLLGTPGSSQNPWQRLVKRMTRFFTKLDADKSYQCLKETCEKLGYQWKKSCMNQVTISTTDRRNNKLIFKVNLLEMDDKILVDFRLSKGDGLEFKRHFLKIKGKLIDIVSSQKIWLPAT

[2] = biological target: Kinase suppressor of Ras 2 (Homo sapiens) (UniProt Q6VAB6); assay: Inhibition of human KSR2 assessed as residual activity at 1 uM using KRREILSRRPSYR as substrate by [gamma-33P]-ATP assay relative to control
[3] = biological target: TRAF2 and NCK-interacting protein kinase (Homo sapiens) (UniProt Q9UKE5); assay: Inhibition of human TNIK assessed as residual activity at 1 uM using RLGRDKYKTLRQIRQ as substrate by [gamma-33P]-ATP assay relative to control
[4] = biological target: T1, Serine/threonine-protein kinase Chk1 (Homo sapiens); assay: Inhibition of hydroxyurea-induced CHK1 phosphorylation at S296 residue in human HCT116 cells at 20 uM treated for 8 hrs starting from 24 hrs post hydroxyurea addition by Western blot analysis; format: cell-based
[5] = biological target: Serine/threonine-protein kinase Sgk1 (Homo sapiens) (UniProt O00141); assay: Inhibition of human SGK1 assessed as residual activity at 1 uM using KGSGSGRPRTSSFAEG as substrate by [gamma-33P]-ATP assay relative to control
[6] = biological target: Muscle, skeletal receptor tyrosine-protein kinase (Homo sapiens) (UniProt O15146); assay: Inhibition of human MUSK assessed as residual activity at 1 uM using MBP as substrate by [gamma-33P]-ATP assay relative to control
[7] = biological target: SRSF protein kinase 2 (Homo sapiens) (UniProt P78362); assay: Inhibition of human SRPK2 assessed as residual activity at 1 uM using GRSRSRSRSR as substrate by [gamma-33P]-ATP assay relative to control
[8] = biological target: T1, Serine/threonine-protein kinase Chk1 (Homo sapiens); assay: Inhibition of hydroxyurea-induced CHK1 phosphorylation at S317 residue in human HCT116 cells at 20 uM treated for 8 hrs starting from 24 hrs post hydroxyurea addition by Western blot analysis; format: cell-based
[9] = biological target: Calcium/calmodulin-dependent protein kinase type II subunit alpha (Homo sapiens) (UniProt Q9UQM7); assay: Inhibition of human CAMK2A assessed as residual activity at 1 uM using KKALRRQETVDAL as substrate by [gamma-33P]-ATP assay relative to control
[10] = biological target: Protein-tyrosine kinase 6 (Homo sapiens) (UniProt Q13882); assay: Inhibition of human BRK assessed as residual activity at 1 uM using poly[Glu:Tyr](4:1) as substrate by [gamma-33P]-ATP assay relative to control
[11] = biological target: Inhibitor of nuclear factor kappa-B kinase subunit alpha (Homo sapiens) (UniProt O15111); assay: Inhibition of human IKKalpha assessed as residual activity at 1 uM using KKKKERLLDDRHDSGLDSMKDEE as substrate by [gamma-33P]-ATP assay relative to control
[12] = biological target: Citron Rho-interacting kinase (Homo sapiens) (UniProt O14578); assay: Inhibition of human STK21 assessed as residual activity at 1 uM using MBP as substrate by [gamma-33P]-ATP assay relative to control
[13] = biological target: Serine/threonine-protein kinase PLK3 (Homo sapiens) (UniProt Q9H4B4); assay: Inhibition of human PLK3 assessed as residual activity at 1 uM using casein as substrate by [gamma-33P]-ATP assay relative to control
[14] = biological target: Serine/threonine-protein kinase/endoribonuclease IRE2 (Homo sapiens) (UniProt Q76MJ5); assay: Inhibition of human ERN2 assessed as residual activity at 1 uM using MBP as substrate by [gamma-33P]-ATP assay relative to control
[15] = biological target: Serine/threonine-protein kinase N3 (Homo sapiens) (UniProt Q6P5Z2); assay: Inhibition of human PKN3 assessed as residual activity at 1 uM using KKLNRTLSVA as substrate by [gamma-33P]-ATP assay relative to control
[16] = biological target: Dual specificity mitogen-activated protein kinase kinase 2 (Homo sapiens) (UniProt P36507); assay: Inhibition of human MEK2 assessed as residual activity at 1 uM using ERK2 as substrate by [gamma-33P]-ATP assay relative to control
[17] = biological target: Myosin light chain kinase, smooth muscle (Homo sapiens) (UniProt Q15746); assay: Inhibition of human MLCK assessed as residual activity at 1 uM using KKLNRTLSFAEPG as substrate by [gamma-33P]-ATP assay relative to control
[18] = biological target: Serine/threonine-protein kinase Nek8 (Homo sapiens) (UniProt Q86SG6); assay: Inhibition of human NEK8 assessed as residual activity at 1 uM using casein as substrate by [gamma-33P]-ATP assay relative to control
[19] = biological target: Cyclin-dependent kinase 1/cyclin B1 (Homo sapiens) (UniProt P06493+P14635); assay: Inhibition of human CDK1/cyclinB assessed as residual activity at 1 uM using Histone H1 as substrate by [gamma-33P]-ATP assay relative to control; format: protein-complex assay
[20] = biological target: Serine/threonine-protein kinase tousled-like 1 (Homo sapiens) (UniProt Q9UKI8); assay: Inhibition of human TLK1 assessed as residual activity at 1 uM using Histone H3 as substrate by [gamma-33P]-ATP assay relative to control
[21] = biological target: CDK1/Cyclin E (Homo sapiens) (UniProt P06493+P24864); assay: Inhibition of human CDK1/cyclinE assessed as residual activity at 1 uM using RB protein as substrate by [gamma-33P]-ATP assay relative to control; format: protein-complex assay
[22] = biological target: Serine/threonine-protein kinase Nek7 (Homo sapiens, UniProt Q8TDX7); assay: Inhibition of human NEK7 assessed as residual activity at 1 uM using casein as substrate by [gamma-33P]-ATP assay relative to control
[23] = biological target: Serine/threonine-protein kinase DCLK1 (Homo sapiens) (UniProt O15075); assay: Inhibition of human DCAMKL1 assessed as residual activity at 1 uM using KKLNRTLSFAEPG as substrate by [gamma-33P]-ATP assay relative to control
[24] = biological target: High affinity nerve growth factor receptor (Homo sapiens) (UniProt P04629); assay: Inhibition of human TRKA assessed as residual activity at 1 uM using poly[Glu:Tyr] (4:1) as substrate by [gamma-33P]-ATP assay relative to control
High affinity nerve growth factor receptor (Homo sapiens), sequence (P04629 33-796 limits assumed): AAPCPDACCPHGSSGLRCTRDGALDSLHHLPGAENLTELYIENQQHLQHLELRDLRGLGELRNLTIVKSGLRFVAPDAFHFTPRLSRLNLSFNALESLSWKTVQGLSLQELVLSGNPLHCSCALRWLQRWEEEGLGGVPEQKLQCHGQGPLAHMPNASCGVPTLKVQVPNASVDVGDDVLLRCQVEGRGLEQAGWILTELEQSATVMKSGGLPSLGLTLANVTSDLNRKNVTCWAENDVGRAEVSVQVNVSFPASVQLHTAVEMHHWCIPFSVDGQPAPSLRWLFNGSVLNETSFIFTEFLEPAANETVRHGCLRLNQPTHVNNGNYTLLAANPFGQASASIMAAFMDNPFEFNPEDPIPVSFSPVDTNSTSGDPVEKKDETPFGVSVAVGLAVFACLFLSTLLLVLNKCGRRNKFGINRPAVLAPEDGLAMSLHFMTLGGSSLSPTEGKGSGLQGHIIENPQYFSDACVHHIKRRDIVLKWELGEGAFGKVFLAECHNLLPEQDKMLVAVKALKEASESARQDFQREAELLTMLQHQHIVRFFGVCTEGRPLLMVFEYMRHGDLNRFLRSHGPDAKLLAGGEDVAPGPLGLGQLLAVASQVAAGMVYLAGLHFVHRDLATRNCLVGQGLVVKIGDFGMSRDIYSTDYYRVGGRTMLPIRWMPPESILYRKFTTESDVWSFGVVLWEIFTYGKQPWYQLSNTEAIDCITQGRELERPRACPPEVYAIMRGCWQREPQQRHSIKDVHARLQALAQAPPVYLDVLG

Serine/threonine-protein kinase Nek8 (Homo sapiens), sequence (Q86SG6 whole entry): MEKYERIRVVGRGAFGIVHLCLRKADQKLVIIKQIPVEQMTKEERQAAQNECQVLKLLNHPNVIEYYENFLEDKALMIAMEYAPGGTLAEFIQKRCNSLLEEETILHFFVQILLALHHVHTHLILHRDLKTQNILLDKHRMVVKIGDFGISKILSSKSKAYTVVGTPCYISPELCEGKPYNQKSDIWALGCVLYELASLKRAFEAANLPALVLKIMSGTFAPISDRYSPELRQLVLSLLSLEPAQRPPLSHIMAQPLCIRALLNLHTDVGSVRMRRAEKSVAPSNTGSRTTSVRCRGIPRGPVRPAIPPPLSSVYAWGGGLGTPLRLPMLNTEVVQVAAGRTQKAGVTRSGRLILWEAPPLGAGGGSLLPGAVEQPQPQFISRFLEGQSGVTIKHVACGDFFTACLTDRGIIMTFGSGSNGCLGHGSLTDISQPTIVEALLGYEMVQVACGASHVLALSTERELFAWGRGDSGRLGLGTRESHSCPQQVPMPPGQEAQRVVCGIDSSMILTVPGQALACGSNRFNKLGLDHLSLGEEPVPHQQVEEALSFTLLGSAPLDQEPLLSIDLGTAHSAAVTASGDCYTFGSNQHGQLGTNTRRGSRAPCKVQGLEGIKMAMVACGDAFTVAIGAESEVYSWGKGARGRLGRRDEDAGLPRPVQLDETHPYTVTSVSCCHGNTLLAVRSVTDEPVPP
Cyclin-dependent kinase 1/cyclin B1 (Homo sapiens), sequence (P06493 whole entry, looked up): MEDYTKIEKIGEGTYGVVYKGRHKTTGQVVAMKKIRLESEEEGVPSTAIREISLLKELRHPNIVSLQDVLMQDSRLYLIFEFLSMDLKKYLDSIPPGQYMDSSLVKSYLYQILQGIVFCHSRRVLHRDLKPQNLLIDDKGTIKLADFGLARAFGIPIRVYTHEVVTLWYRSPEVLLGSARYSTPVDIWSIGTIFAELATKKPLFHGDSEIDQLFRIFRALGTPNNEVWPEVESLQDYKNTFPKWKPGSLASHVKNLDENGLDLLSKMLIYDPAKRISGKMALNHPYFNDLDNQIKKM
Cyclin-dependent kinase 1/cyclin B1 (Homo sapiens), sequence (P14635 whole entry, looked up): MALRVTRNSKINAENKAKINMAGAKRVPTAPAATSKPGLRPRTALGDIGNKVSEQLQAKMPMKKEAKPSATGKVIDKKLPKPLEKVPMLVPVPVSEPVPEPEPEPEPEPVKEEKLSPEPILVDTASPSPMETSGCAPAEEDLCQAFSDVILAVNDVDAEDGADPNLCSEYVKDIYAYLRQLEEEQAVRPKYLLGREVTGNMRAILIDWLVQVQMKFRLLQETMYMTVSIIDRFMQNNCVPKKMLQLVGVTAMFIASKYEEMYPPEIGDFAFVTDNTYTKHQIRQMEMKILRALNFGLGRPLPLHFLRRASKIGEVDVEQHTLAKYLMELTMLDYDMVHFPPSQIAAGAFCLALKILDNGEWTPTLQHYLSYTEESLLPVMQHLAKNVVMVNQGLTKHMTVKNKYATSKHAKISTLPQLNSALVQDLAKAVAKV
CDK1/Cyclin E (Homo sapiens), sequence (P06493 whole entry, looked up): as the sequence (P06493 whole entry, looked up) above
CDK1/Cyclin E (Homo sapiens), sequence (P24864 whole entry, looked up): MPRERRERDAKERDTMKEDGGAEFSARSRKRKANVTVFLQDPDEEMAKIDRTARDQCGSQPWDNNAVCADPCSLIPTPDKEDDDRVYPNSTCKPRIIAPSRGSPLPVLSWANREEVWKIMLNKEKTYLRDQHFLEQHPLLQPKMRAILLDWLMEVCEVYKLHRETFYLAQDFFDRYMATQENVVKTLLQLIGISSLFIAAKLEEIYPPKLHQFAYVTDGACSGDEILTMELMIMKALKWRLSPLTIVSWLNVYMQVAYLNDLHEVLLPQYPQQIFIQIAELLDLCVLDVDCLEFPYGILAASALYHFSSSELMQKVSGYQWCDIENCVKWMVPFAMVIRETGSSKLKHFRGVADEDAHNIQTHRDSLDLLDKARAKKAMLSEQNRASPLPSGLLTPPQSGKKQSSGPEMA
Kinase suppressor of Ras 2 (Homo sapiens), sequence (Q6VAB6 whole entry): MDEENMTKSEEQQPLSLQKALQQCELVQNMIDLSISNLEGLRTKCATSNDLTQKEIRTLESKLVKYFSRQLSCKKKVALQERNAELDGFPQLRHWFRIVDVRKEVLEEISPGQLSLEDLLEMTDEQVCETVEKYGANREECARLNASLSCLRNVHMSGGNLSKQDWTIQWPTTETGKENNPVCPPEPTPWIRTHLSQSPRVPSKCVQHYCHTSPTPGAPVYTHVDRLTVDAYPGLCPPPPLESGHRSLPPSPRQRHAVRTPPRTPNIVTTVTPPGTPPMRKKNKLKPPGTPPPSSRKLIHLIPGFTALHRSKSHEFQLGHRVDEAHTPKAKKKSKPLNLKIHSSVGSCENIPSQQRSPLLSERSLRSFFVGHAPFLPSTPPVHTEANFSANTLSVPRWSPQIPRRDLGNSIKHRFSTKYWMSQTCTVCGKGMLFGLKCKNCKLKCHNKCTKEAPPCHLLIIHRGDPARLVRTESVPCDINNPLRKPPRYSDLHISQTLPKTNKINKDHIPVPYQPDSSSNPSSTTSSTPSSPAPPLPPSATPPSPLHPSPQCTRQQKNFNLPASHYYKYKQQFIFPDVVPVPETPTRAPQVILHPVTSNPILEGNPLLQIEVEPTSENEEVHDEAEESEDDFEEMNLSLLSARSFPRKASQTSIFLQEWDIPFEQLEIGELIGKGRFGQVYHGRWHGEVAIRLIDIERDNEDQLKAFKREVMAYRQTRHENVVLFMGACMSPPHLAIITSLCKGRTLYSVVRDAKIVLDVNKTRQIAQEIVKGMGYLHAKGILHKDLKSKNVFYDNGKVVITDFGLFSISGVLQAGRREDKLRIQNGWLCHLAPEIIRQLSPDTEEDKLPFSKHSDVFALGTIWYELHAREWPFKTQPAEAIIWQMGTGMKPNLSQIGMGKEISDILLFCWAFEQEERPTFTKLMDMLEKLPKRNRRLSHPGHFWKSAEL
Serine/threonine-protein kinase Nek7, sequence (Q8TDX7 whole entry, looked up): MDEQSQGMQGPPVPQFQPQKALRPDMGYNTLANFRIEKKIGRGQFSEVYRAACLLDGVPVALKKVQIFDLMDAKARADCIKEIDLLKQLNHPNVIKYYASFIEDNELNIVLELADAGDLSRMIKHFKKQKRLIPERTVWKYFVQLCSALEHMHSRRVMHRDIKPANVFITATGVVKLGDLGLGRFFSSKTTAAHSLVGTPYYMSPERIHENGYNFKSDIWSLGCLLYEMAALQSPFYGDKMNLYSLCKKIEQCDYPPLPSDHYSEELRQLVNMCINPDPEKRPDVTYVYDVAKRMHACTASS
Serine/threonine-protein kinase PLK3 (Homo sapiens), sequence (Q9H4B4 whole entry, looked up): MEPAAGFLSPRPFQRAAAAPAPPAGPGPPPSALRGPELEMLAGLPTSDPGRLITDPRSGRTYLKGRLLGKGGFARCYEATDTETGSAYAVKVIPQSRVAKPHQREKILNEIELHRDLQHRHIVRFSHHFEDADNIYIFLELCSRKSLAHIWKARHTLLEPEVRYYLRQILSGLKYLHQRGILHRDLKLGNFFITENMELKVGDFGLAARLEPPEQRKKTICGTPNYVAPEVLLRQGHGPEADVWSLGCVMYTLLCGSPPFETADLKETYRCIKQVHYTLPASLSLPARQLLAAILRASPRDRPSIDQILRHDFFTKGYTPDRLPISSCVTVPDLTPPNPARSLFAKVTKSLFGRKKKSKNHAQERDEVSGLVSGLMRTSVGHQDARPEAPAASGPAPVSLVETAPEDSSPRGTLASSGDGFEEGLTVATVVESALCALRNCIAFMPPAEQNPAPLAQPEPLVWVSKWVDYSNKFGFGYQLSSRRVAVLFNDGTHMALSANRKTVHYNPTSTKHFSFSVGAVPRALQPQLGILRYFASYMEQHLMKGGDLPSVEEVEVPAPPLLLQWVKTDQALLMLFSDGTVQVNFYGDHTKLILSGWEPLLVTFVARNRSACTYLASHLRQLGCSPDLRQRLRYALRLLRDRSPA

C(=C\c1ccccc1)/C[N+]12CN3CN(CN(C3)C1)C2
inhibition [1]: inactive | Activity [2]: 90.5 to 97% | Activity [3]: 89.3 to 93.7% | inhibition [4]: Active | Activity [5]: 93.4 to 94.1% | Activity [6]: 89.6% | Activity [7]: 107 to 111% | inhibition [8]: Active | Activity [9]: 93.1 to 94.1% | Activity [10]: 95.2 to 95.6% | Activity [11]: 94 to 95.2% | Activity [12]: 92.4 to 95.5% | Activity [13]: 96.3 to 96.8% | Activity [14]: 94.5 to 96.6%

ClC/C=C/C[N+]12CN3CN(CN(C3)C1)C2
Activity [15]: 92.3 to 92.9% | Activity [16]: 85.2 to 94.1% | Activity [17]: 90.5 to 94.9% | Activity [18]: 88.6 to 89% | Activity [19]: 94.3 to 96.5% | Activity [20]: 93.1 to 93.4% | Activity [21]: 98.8 to 100% | Activity [22]: 94.2 to 95.6% | Activity [23]: 92.8 to 93.2% | Activity [24]: 94 to 94.8%
